Laboratory results: US20100069402A1, “Treatment of Behavioral Disorders” (priority 2004, published 2010)

Tests used:
Assay type in all cases: in vivo
NGF = assay: STUDY B: serum NGF assay by ELSA (Enzyme-Linked Immunosorbent Assay); conditions: children with ADHD and allergies; po qam for 2 weeks; NGF highest on placebo
Experimental: (§1) In general, two studies were conducted to better understand the association between the allergy/immune system and the central nervous system. STUDY A, tested the effects of cetirizine (namely ZYRTEC), cetirizine and methylphenidate (namely RITALIN SR), and methylphenidate, versus placebo on attention, memory, and behavior in children with ADHD and allergic rhinitis. STUDY B assessed NGF response to cetirizine and methylphenidate treatment in children with ADHD and allergic rhinitis.
(§2) The individuals chosen to be a part of these studies had the following characteristics:
(§3) All subjects were randomized into one of four treatment groups as follows:
(§4) 1) cetirizine alone: 10 mg po qam for 2 weeks;
(§5) 2) Combination of cetirizine and methylphenidate: 10 mg po qam RITALIN SR (20 mg if <65 kg; 40 mg if ≧65 kg) po qam for 2 weeks;
3) Methylphenidate alone: (20 mg if <65 kg; 40 mg if ≧65 kg) po qam for 2 weeks; and […]

[1] = test system: children with ADHD and allergic rhinitis; assay: STUDY A: ADHD measures, Conners' Rating Scale t-scores; conditions: po qam for 2 weeks; for hyperactivity t-scores (FIG. 1): evaluation of the ADHD parameters
Experimental: as §1, §2, §3, §4, §5
(§6) 3) Methylphenidate alone: (20 mg if <65 kg; 40 mg if ≧65 kg) po qam for 2 weeks; and
5) Conners' Rating Scale—Revised, (CRS)

[2] = test system: children with ADHD and allergic rhinitis; assay: STUDY A: allergic rhinitis measures (rhinoconjunctivitis symptoms, RQLQ); conditions: children 8-18 years with ADHD and seasonal allergic rhinitis; po qam for 2 weeks
Experimental: as §1, §2, §3, §4, §5, §6
1) Rhinoconjunctivitis Symptoms
2) Total Symptom Severity Complex, (TSSC)
3) Adolescent Rhinoconjunctivitis Quality of Life Questionnaire, (RQLQ)

In the case of O=C(O)COCCN1CCN(C(c2ccccc2)c2ccc(Cl)cc2)CC1 (stereo not drawn) [cetirizine], the “serum NGF level versus placebo” value (NGF) is reported as “downregulated to the same extent”, the “hyperactivity t-scores (FIG. 1)” value [1] is reported as “no difference was noted” and the “parental Conner's report: ADHD score” value [1] is reported as “no difference was recorded”. For the same compound, the “parental Conner's report: hyperactivity score” value [1] was “no difference was recorded”, the “parental Conner's report: inattention score” value [1] was “no difference was recorded” and the “parental Conner's report: oppositional score” value [1] was “no difference was recorded”. For the same compound, the “RQLQ emotional symptoms, change from baseline” value [2] was “similar”, the RQLQ nasal symptoms [2] was “methylphenidate had a superior effect compared to cetirizine” and the “rhinoconjuctivitis quality of life scores” value [2] was “methylphenidate had a superior effect compared to cetirizine”.
In the case of COC(=O)C(c1ccccc1)C1CCCCN1 (stereo not drawn) [methylphenidate], the “serum NGF level versus placebo” value (NGF) is reported as “downregulated to the same extent”, the “hyperactivity t-scores (FIG. 1)” value [1] is reported as “no difference was noted” and the “parental Conner's report: ADHD score” value [1] is reported as “no difference was recorded”. The “parental Conner's report: hyperactivity score” value [1] was “no difference was recorded”, the “parental Conner's report: inattention score” value [1] was “no difference was recorded” and the “parental Conner's report: oppositional score” value [1] was “no difference was recorded”. The “RQLQ emotional symptoms, change from baseline” value [2] was “similar”, the RQLQ nasal symptoms [2] was “superior effect compared to cetirizine” and the “rhinoconjuctivitis quality of life scores” value [2] was “superior effect compared to cetirizine”.
